Assays:
[1] = method code SF-AS, from DOI: 10.3109/03639048709068705
[2] = method code SF-AS, from DOI: 10.1002/ardp.19853180604, PMID: 4026543; settings: pH 7.4
[3] = method code SF-RC, from DOI: 10.1016/0361-9230(85)90153-4, PMID: 2413968
[4] = from Jayashree, Bs.; Sahu, A.; MM, S.; Venugopala, K. (2006). Synthesis, characterization and determination of partition coefficient of some triazolo thiadiazinyl chlorocoumarin derivatives for their …; settings: pH 7.4
[5] = method code SF-HPLC, from DOI: 10.1016/j.ejps.2012.04.024, PMID: 22609526
[6] = not given; remark: listed apart in the source
[7] = not given; remark: listed apart in the source
[8] = not given; remark: listed apart in the source
[9] = method code SF-HPLC, from DOI: 10.1248/cpb.47.1081, PMID: 10478463; settings: pH 6.5
[10] = not given; remark: listed apart in the source
[11] = not given; remark: listed apart in the source
[12] = not given; remark: listed apart in the source
[13] = not given; remark: listed apart in the source
[14] = method code SF-HPLC, from Thijssen, W. (1981). The relationship between Log P, Rm, log k' and the constants pi and f: a study on penicillins. Eur J Med Chem, 16(5)449-452.
[15] = method code SF, from PMID: 8999431; settings: pH 7.4
[16] = not given; remark: listed apart in the source
[17] = not given; remark: listed apart in the source
[18] = not given; remark: listed apart in the source
[19] = method code SF-AS, from DOI: 10.1016/j.bmc.2004.10.037, PMID: 15653345
[20] = not given; remark: listed apart in the source
[21] = not given; remark: listed apart in the source
[22] = method code SF-AS, from PMID: 872227; settings: pH 7.2

A logP of 0.16 was found for `Cc1cn(C2CC(N=[N+]=[N-])C(COC(=O)C(=O)N3CCCC3C(=O)O)O2)c(=O)[nH]c1=O` (centres undefined) in this work.

A logP [1] of 4.99 was found for `CCC(=O)OC(CNC(C)C)COc1cccc2ccccc12` (centres undefined) in this work.

A logD [2] of -1.6 was found for `Cc1nc2ccccc2c(=O)n1N=C1SCC(=O)N1c1ccc(Cl)cc1` in this work.

A logP [3] of -0.56 was found for `CSCC[C@H](NC(=O)[C@H](CC(C)C)NC(=O)CNC(=O)[C@H](Cc1ccccc1)NC(=O)[C@H](Cc1ccccc1)NC(=O)[C@H](CCC(N)=O)NC(=O)[C@H](CCC(N)=O)NC(=O)[C@@H]1CCCN1C(=O)[C@H](CCCCN)NC(=O)[C@@H]1CCCN1C(=O)[C@@H](N)CCCN=C(N)N)C(N)=O` in this work.

A logD [4] of 1.53 was found for `O=c1oc2ccc(Cl)cc2cc1C1=Nn2c(nnc2-c2cccc(Br)c2)SC1` in this work.

A logP [5] of 3.85 was found for `COc1cc(OC)c2c(=O)c(OC)c(-c3ccc(OC)c(OC)c3)oc2c1` in this work.

A logP [6] of 3.66 was found for `CC(C)N(CCC(C(N)=O)c1ccc(-c2ccccc2)cc1)C(C)C` (centres undefined) in this work.

A logP [7] of 0.74 was found for `CCOCn1c(Cc2ccccc2)c(CC)c(=O)[nH]c1=O` in this work.

A logP [6] of 4.23 was found for `CC(C)N(CCC(CCC1CCCCC1)(C(N)=O)c1ccccc1Cl)C(C)C` (centres undefined) in this work.

A logD [4] of 0.36 was found for `O=c1oc2ccc(Cl)cc2cc1C1=Nn2c(nnc2-c2ccccc2O)SC1` in this work.

A logP of 1.12 was found for `Cc1cn(C2CC(N=[N+]=[N-])C(COC(=O)C(=O)NC(CC(C)C)C(=O)O)O2)c(=O)[nH]c1=O` (centres undefined) in this work.

A logP [8] of 5.97 was found for `CC(C)NCC(COc1cccc2ccccc12)OC(=O)c1ccc([N+](=O)[O-])cc1` (centres undefined) in this work.

A logD [9] of 0.46 was found for `CON=C(C(=O)NC1C(=O)N2C(C(=O)OC(C)OC(C)=O)=CCSC12)c1csc(N)n1` (centres undefined) in this work.

A logP [10] of 3.06 was found for `Cc1cccc2c1Sc1ccccc1C2NC(=O)CCN(C)C` (centres undefined) in this work.

A logP [5] of -0.97 was found for `O=C(OC[C@H]1O[C@@H](Oc2c(-c3ccc(O)c(O)c3)oc3cc(O)cc(O)c3c2=O)[C@H](O)[C@@H](O)[C@H]1O)c1cc(O)c(O)c(O)c1` in this work.

A logP [11] of 2.58 was found for `COc1ccc2c(c1)OC[C@]1(O)c3cc4c(cc3O[C@H]21)OCO4` in this work.

A logD [2] of -1.26 was found for `Cc1nc2ccccc2c(=O)n1N=C1SCC(=O)N1c1ccc(Br)cc1` in this work.

A logP [1] of 6.44 was found for `CC(C)NCC(COc1cccc2ccccc12)OC(=O)C(C)(C)C` (centres undefined) in this work.

A logP [3] of -1.42 was found for `NC(=O)[C@@H]1CCCN1C(=O)[C@H](Cc1cnc[nH]1)NC(=O)[C@@H]1CCC(=O)N1` in this work.

A logP [12] of 3.73 was found for `C(=Cc1cccnc1)c1ccc(C=Cc2cccnc2)cc1` in this work.

A logP [13] of 3.67 was found for `Cc1ccccc1OCC(O)CNCC(O)COc1ccccc1C` (centres undefined) in this work.

A logP [14] of 2.23 was found for `Cc1onc(-c2c(Cl)ccc(O)c2F)c1C(=O)NC1SC2N(C1=O)C(C(=O)O)C2(C)C` (centres undefined) in this work.

A logP [7] of 3.44 was found for `CCc1c(Sc2ccccc2)n(COCc2ccccc2)c(S)nc1=O` in this work.

A logD [15] of 2.47 was found for `CCn1cc(C(=O)NC(C)C(=O)OC)c(=O)c2ccc(C)nc21` (centres undefined) in this work.

A logP [16] of -2.49 was found for `CC(=O)N(CCO)c1c(I)c(C(=O)NC(CO)CO)c(I)c(C(=O)NC(CO)CO)c1I` in this work.

A logP [1] of 6.85 was found for `CCCCCC(=O)OC(CNC(C)C)COc1cccc2ccccc12` (centres undefined) in this work.

A logP [17] of 1.6 was found for `C[C@]12C=CC(=O)C=C1CC[C@@H]1[C@@H]2C(=O)C[C@@]2(C)[C@H]1CC[C@]2(O)C(=O)CO` in this work.

A logP [11] of 3.58 was found for `CC1(C)C=Cc2c(ccc3c2O[C@H]2c4ccc(O)cc4OC[C@@H]32)O1` (relative stereo) in this work.

A logD [2] of -1.06 was found for `Cc1nc2ccccc2c(=O)n1N=C1SCC(=O)N1c1ccccc1` in this work.

A logP [14] of 2.57 was found for `Cc1onc(-c2c(Cl)cccc2Cl)c1C(=O)NC1C(=O)N2C1S(=O)C(C)(C)C2C(=O)O` (centres undefined) in this work.

A logP [14] of 2 was found for `Cc1onc(-c2ccccc2Cl)c1C(=O)NC1C(=O)N2C1S(=O)C(C)(C)C2C(=O)O` (centres undefined) in this work.

A logD [9] of 2.52 was found for `CON=C(C(=O)NC1C(=O)N2C(C(=O)OC(C)OC(=O)OC3CCCCC3)=CCSC12)c1csc(N)n1` (centres undefined) in this work.

A logP [18] of 2.58 was found for `Cc1onc(-c2c(F)cccc2Cl)c1C(=O)N[C@@H]1C(=O)N2[C@@H]1SC(C)(C)[C@@H]2C(=O)O` in this work.

A logP [13] of 2.62 was found for `O=[N+]([O-])c1ccc(OCC(O)CNCC(O)COc2ccccc2)cc1` (centres undefined) in this work.

A logP [19] of 0.71 was found for `C#CCNC(Cc1ccc(O)c2ncccc12)C(=O)OCC` (centres undefined) in this work.

A logP [8] of 4.34 was found for `CC(=O)OC(CNC(C)C)COc1cccc2ccccc12` (centres undefined) in this work.

A logP [10] of 3.55 was found for `CCN(CC)CCC(=O)NC1c2ccccc2Oc2c(C)cccc21` (centres undefined) in this work.

A logP [13] of 3 was found for `COc1ccc(CCNCC(O)COc2cccc(C)c2)cc1OC` (centres undefined) in this work.

A logP [16] of -2.64 was found for `CC(=O)N(C[C@@H](O)CO)c1c(I)c(C(=O)NC(CO)CO)c(I)c(N(C(C)=O)[C@@H](O)CO)c1I` in this work.

A logP [20] of 2.32 was found for `CNc1ccc(-c2ccc3cc(OCC(O)CF)ccc3n2)cc1` (centres undefined) in this work.

A logP [17] of 3.75 was found for `COC(=O)C1=C(C)NC(C)=C(C(=O)OC(C)C)[C@H]1c1cccc2nonc12` in this work.

A logP [19] of 1.79 was found for `C#CCN1CCN(Cc2ccc(O)c3ncccc23)CC1` in this work.

A logP [17] of 3.21 was found for `CCCCNc1cc(C(=O)O)cc(S(N)(=O)=O)c1Oc1ccccc1` in this work.

A logP [21] of 3.44 was found for `CCN(CC)C(=O)C(C#N)=Cc1cc(OC(=O)c2ccccc2)c(OC(=O)c2ccccc2)c([N+](=O)[O-])c1` in this work.

A logP [12] of 4.32 was found for `COc1cc(C=Cc2cccnc2)ccc1C=Cc1cccnc1` in this work.

A logP [8] of 3.78 was found for `CC=CC(=O)OC(CNC(C)C)COc1cccc2ccccc12` (centres undefined) in this work.

A logD [22] of 3.38 was found for `CCCCCOc1ccc(NC(=O)OCCN2CCOCC2)c(C)c1` in this work.

A logD [22] of 3.9 was found for `CCCCCCOc1ccc(NC(=O)OCCN2CCOCC2)c(C)c1` in this work.

A logP [7] of 3.46 was found for `CCOCn1c(Cc2cc(C)cc(C)c2)c(C(C)C)c(=O)[nH]c1=O` in this work.

A logP [21] of 1.23 was found for `CCN(CC)C(=O)C(C#N)=Cc1cc(OC(C)=O)c(OC(C)=O)c([N+](=O)[O-])c1` in this work.

A logP of 0.68 was found for `Cc1cn(C2CC(N=[N+]=[N-])C(COC(=O)C(=O)NC(C(=O)O)C(C)C)O2)c(=O)[nH]c1=O` (centres undefined) in this work.

A logD [15] of 3.15 was found for `CCn1cc(C(=O)NC(CC(C)C)C(=O)OC)c(=O)c2ccc(C)nc21` (centres undefined) in this work.

A logP [20] of 2.4 was found for `Nc1ccc(-c2ccc3cc(OCCF)ccc3n2)cc1` in this work.

A logP [6] of 2.83 was found for `CC(C)N(CCC(C(N)=O)c1ccccc1Cl)C(C)C` (centres undefined) in this work.

A logP [10] of 4.1 was found for `CCN(CC)CCC(=O)NC1c2ccccc2Sc2c(C)cccc21` (centres undefined) in this work.

A logP [3] of -1.35 was found for `CCNC(=O)[C@@H]1CCCN1C(=O)[C@H](CCCN=C(N)N)NC(=O)[C@H](CC(C)C)NC(=O)[C@@H](COC(C)(C)C)NC(=O)[C@H](Cc1ccc(O)cc1)NC(=O)[C@H](CO)NC(=O)[C@H](Cc1c[nH]c2ccccc12)NC(=O)[C@H](Cc1cnc[nH]1)NC(=O)[C@@H]1CCC(=O)N1` in this work.

A logD [22] of 2.82 was found for `CCCCOc1ccc(NC(=O)OCCN2CCOCC2)c(C)c1` in this work.

A logP [18] of 3.14 was found for `CC1(C)S[C@@H]2[C@H](NC(=O)C(C(=O)Oc3ccccc3)c3ccccc3)C(=O)N2[C@H]1C(=O)O` (some centres undefined) in this work.

A logP [18] of 0.59 was found for `CC1(C)S[C@@H]2[C@H](NC(=O)[C@@H](c3ccccc3)S(=O)(=O)O)C(=O)N2[C@H]1C(=O)O` in this work.

A logP [11] of 2.44 was found for `COc1ccc([C@@H]2COc3cc(O)ccc3C2)c(O)c1` in this work.

A logD [4] of 1.4 was found for `O=c1oc2ccc(Cl)cc2cc1C1=Nn2c(COc3ccc(Cl)cc3Cl)nnc2SC1` in this work.

A logP [20] of 3.71 was found for `CN(CCF)c1ccc2cc(CC=C(C#N)C#N)ccc2c1` in this work.

A logD [15] of 2.07 was found for `CCOC(=O)CNC(=O)c1cn(CC)c2nc(C)ccc2c1=O` in this work.

A logP [21] of 3.15 was found for `CCCC(=O)Oc1cc(C=C(C#N)C(=O)N(CC)CC)cc([N+](=O)[O-])c1OC(=O)CCC` in this work.

A logP [19] of 1.57 was found for `CCOC(=O)N1CCN(Cc2ccc(O)c3ncccc23)CC1` in this work.

A logD [9] of 1.37 was found for `CON=C(C(=O)NC1C(=O)N2C(C(=O)OC(C)OC(=O)OC(C)C)=CCSC12)c1csc(N)n1` (centres undefined) in this work.

A logP [16] of -3.08 was found for `CC(=O)N(CC(O)CO)c1c(I)c(C(=O)NCC(O)CO)c(I)c(C(=O)NCC(O)CO)c1I` (centres undefined) in this work.

A logP [5] of 0.79 was found for `O=C(O)[C@H]1O[C@@H](Oc2c(-c3ccc(O)c(O)c3)oc3cc(O)cc(O)c3c2=O)[C@H](O)[C@@H](O)[C@@H]1O` in this work.

A logP [12] of 3.93 was found for `C(=C\c1ccc(/C=C/c2ccncc2)cc1)/c1ccncc1` in this work.

From the SangsterLogP compilation
